As a reminder, the MIC is the smallest concentration in the dilution series that meets the test's criterion for growth inhibition.

Our source for the MIC values is ChEMBL document CHEMBL2046305, “Discovery of selective menaquinone biosynthesis inhibitors against Mycobacterium tuberculosis” (J Med Chem, 2012).

Values after ≈ are worked out from the molar mass of the structure shown. A value given as a limit tells only on which side of the number the result lay.

Assay [1] deals with Mycobacterium tuberculosis. Put plainly: Antibacterial activity against isoniazid-resistant Mycobacterium tuberculosis H37Rv by microplate alamar blue assay. In kind it is functional. (In general: The colour change of resazurin is a common sign of viable cells or microbes.)
Assay [2] has as its system Mycobacterium tuberculosis. Nature of the assay: Antibacterial activity against rifampicin-resistant Mycobacterium tuberculosis H37Rv by microplate alamar blue assay. It is filed as functional.

As for `CO[C@H]1/C=C/O[C@@]2(C)Oc3c(C)c(O)c4c(O)c(c(/C=N/N5CCN(C)CC5)c(O)c4c3C2=O)NC(=O)/C(C)=C\C=C\[C@H](C)[C@H](O)[C@@H](C)[C@@H](O)[C@@H](C)[C@H](OC(C)=O)[C@@H]1C` [RIFAMPIN], the MIC was 0.03 µg/mL (≈ 0.0365 µM) in assay [1] and above 4 µg/mL in assay [2].

Regarding `NNC(=O)c1ccncc1` [ISONIAZID], the results for the MIC in assay [1] and in assay [2] were above 8 µg/mL and 0.05 µg/mL (≈ 0.365 µM), respectively.

Consider `CCCCCC[C@H](CN1CCC(COc2cccc(C(=O)c3ccc(Cl)cc3)c2)CC1)OC(N)=O`, for which the MIC in assay [1] and in assay [2] was 2.91 µg/mL (≈ 5.81 µM) in each case.

Regarding `CCCCCC[C@H](CN1CCC(COc2cccc(/C(=N\OC)c3ccc(Cl)cc3)c2)CC1)OC(N)=O`, the MIC is 1.52 µg/mL (≈ 2.87 µM) in assay [1] and 1.51 µg/mL (≈ 2.85 µM) in assay [2].
